Experiments:
Assay type in all cases: biochemical
[1] = target: T1, purified recombinant active kinase domain of full length PKC theta (amino acids 362-706) (Homo sapiens, UniProt Q04759); assay: Radioactive kinase assay for inhibition of the active kinase domain (KD) of PKCθ; details: radioactive (ATP γ P33) assay, average value
T1 construct: active kinase domain of full length PKC theta (amino acids 362-706)
Method: A Radioactive Kinase Assay for Inhibition of the Active Kinase Domain (KD) of PKCθ
(§1) This assay is based on the phosphorylation of a biotinylated substrate by a kinase utilizing radiolabeled ATP (ATP γ P33). The substrate was a biotinylated peptide with a sequence of biotin-FARKGSLRQ-C(O)NH2. The enzyme was purified recombinant active kinase domain of full length PKC theta (amino acids 362-706). The assay buffer was composed of 100 mM Hepes, pH7.5, 2 mM MgCl2, 20 mM β-glycerophosphate and 0.008% TritonX 100. A reaction mixture of ATP, ATP γ P33 (PerkinElmer), DTT, and the enzyme was prepared in the assay buffer and added to a 96-well polypropylene plate. The compound (diluted in DMSO in a separate 96-well polypropylene plate) was added to the reaction mixture and incubated at room temperature. Following the incubation, the peptide substrate was added to the reaction mixture to initiate the enzymatic reaction. The reaction was terminated with the addition of a stop solution (100 mM EDTA, 0.2% TritonX100, and 20 mM NaHPO4) and transferred from the assay plate to a washed streptavidin-coated 96-well scintiplate (PerkinElmer). The scintiplate was incubated at room temperature, washed in PBS with 0.1% TritonX 100, and counted in the 1450 Microbeta Trilux (Wallac, Version 2.60). Counts were recorded for each well as corrected counts per minute (CCPM). The counts were considered corrected because they were adjusted according to a P33 normalization protocol, which corrects for efficiency and background differences between the instrument detectors (software version 4.40.01).

[2] = target: T2, purified recombinant full length PKC theta (Panvera, P2996) (Homo sapiens, UniProt Q04759); assay: Radioactive kinase assay for inhibition of full length (FL) PKCθ; details: full length enzyme; radioactive (ATP γ P33) assay; average value
T2 construct: purified recombinant full length PKC theta (Panvera, P2996); purchased Panvera P2996
Method: as §1
A Radioactive Kinase Assay for Inhibition of Full Length (FL) PKCθ Inhibitors
This assay differs from what was described above in that the enzyme used was purified recombinant full length PKC theta (Panvera, P2996).

[3] = target: T3, human PKCθ full length enzyme (Homo sapiens, UniProt Q04759); assay: PKCθ IMAP assay; details: full length enzyme 1 nM; ATP 6 μM; peptide 100 nM; FP readout; average value
T3 construct: human PKCθ full length enzyme (Panvera Cat# P2996); purchased Panvera P2996
Method: The materials used include the following: human PKCθ full length enzyme (Panvera Cat# P2996); substrate peptide: 5FAM-RFARKGSLRQKNV-OH (Molecular Devices, RP7032); ATP (Sigma Cat # A2383); DTT (Pierce, 20291); 5× kinase reaction buffer (Molecular Devices, R7209); 5× binding buffer A (Molecular Devices, R7282), 5× binding buffer B (Molecular Devices, R7209); IMAP Beads (Molecular Devices, R7284); and 384-well plates (Corning Costar, 3710).
The reaction buffer was prepared by diluting the 5× stock reaction buffer and adding DTT to obtain a concentration of 3.0 mM. The binding buffer was prepared by diluting the 5× binding buffer A. A master mix solution was prepared using a 90% dilution of the reaction buffer containing 2× ATP (12 uM) and 2× peptide (200 nm). Compounds were diluted in DMSO to 20× of the maximum concentration for the IC50 measurement. 27 μl of the master mix solution for each IC50 curve was added to the first column in a 384-well plate and 3 μl of 20× compound in DMSO was added to each well. The final concentration of compound was 2× and 10% DMSO. DMSO was added to the rest of the master mix to increase the concentration to 10%. 10 μl of the master mix containing 10% DMSO was added to the rest of the wells on the plate except the 2nd column. 20 μl was transferred from the first column to the 2nd column.
The compounds were serially diluted in 2:1 ratio starting from the 2nd column. A 2× (2 nM) PKCθ solution was made in the reaction buffer. 10 μl of the PKCθ solution was added to every well to achieve these final concentrations: PKCθ—1 nM; ATP—6 μM; peptide—100 nM; DMSO—5%. Samples were incubated for 25 minutes at room temperature. The binding reagent was prepared by diluting the beads in 1× binding buffer to 800:1. 50 μl of the binding reagent was added to every well and incubated for 20 minutes. FP was measured using Envision2100 (PerkinElmer Life Sciences). Wells with no ATPs and wells with no enzymes were used as controls.

T1 sequence (Q04759 362-706): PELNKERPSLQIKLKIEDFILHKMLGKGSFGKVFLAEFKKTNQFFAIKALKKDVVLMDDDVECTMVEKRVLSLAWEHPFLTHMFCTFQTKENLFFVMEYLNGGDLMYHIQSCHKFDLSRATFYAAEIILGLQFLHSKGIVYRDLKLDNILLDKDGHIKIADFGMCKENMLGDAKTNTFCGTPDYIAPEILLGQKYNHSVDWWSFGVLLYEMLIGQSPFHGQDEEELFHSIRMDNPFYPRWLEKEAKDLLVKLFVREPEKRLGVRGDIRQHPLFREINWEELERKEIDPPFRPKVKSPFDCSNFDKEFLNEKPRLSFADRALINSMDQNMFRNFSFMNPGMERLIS
T3 sequence (Q04759 whole entry): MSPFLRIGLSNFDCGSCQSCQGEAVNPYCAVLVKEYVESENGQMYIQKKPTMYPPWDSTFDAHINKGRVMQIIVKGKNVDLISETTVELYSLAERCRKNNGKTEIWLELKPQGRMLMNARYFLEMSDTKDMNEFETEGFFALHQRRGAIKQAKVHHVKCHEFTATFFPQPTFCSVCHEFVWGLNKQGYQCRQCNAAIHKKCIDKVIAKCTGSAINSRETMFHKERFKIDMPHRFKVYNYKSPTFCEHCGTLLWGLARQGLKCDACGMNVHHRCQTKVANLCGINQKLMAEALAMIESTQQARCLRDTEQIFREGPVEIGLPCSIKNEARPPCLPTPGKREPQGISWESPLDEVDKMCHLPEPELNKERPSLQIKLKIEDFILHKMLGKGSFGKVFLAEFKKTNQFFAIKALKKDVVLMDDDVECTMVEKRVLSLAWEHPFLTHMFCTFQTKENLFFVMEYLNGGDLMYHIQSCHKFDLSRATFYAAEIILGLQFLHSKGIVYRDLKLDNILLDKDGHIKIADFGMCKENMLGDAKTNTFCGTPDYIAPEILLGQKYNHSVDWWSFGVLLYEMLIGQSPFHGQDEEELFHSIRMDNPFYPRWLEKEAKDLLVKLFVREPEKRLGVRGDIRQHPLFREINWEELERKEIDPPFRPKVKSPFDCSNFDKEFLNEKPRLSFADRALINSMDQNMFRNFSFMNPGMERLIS
T2 sequence (Q04759 whole entry): as above

Structure (SMILES)	IC50 [1]	IC50 [2]	IC50 [3]
COc1ccc(-c2cncc(C#N)c2Nc2ccc(Cl)c(Cl)c2)cc1OC [Compound 115, 4-[(3,4-dichlorophenyl)amino]-5-(3,4-dimethoxyphenyl)nicotinonitrile]	4.26 µM	380 nM	–
COc1ccc(-c2cncc(C#N)c2Nc2cc(OC)c(OC)c(OC)c2)cc1OC [Compound 119, 5-(3,4-dimethoxyphenyl)-4-[(3,4,5-trimethoxyphenyl)amino]nicotinonitrile]	11.7 µM	–	1950 nM
CCCCOc1cc(Nc2c(C#N)cncc2-c2ccc(OC)c(OC)c2)c(Cl)cc1Cl [Compound 140, 4-[(5-butoxy-2,4-dichlorophenyl)amino]-5-(3,4-dimethoxyphenyl)nicotinonitrile]	–	9750 nM	–
N#Cc1cncc(-c2cccc([N+](=O)[O-])c2)c1Nc1ccc(OCc2ccccc2)c(Cl)c1 [Compound 142, 4-{[4-(benzyloxy)-3-chlorophenyl]amino}-5-(3-nitrophenyl)nicotinonitrile]	214 µM	–	–
N#Cc1cncc(-c2cccc([N+](=O)[O-])c2)c1Nc1ccc(F)c(Cl)c1 [Compound 144, 4-[(3-chloro-4-fluorophenyl)amino]-5-(3-nitrophenyl)nicotinonitrile]	158 µM	–	–
N#Cc1cncc(-c2ccccc2[N+](=O)[O-])c1Nc1ccc(F)c(Cl)c1 [Compound 146, 4-[(3-chloro-4-fluorophenyl)amino]-5-(2-nitrophenyl)nicotinonitrile]	3.85 µM	–	–

The remaining lines, values ahead:

IC50 [1]	IC50 [2]	IC50 [3]	Structure (SMILES)
0.19 µM	160 nM	180 nM	COc1cc(Nc2c(C#N)cncc2-c2ccc(OC)c(OC)c2)c(Cl)cc1Cl [Compound 137, 4-[(2,4-dichloro-5-methoxyphenyl)amino]-5-(3,4-dimethoxyphenyl)nicotinonitrile]
–	320 nM	–	CCOc1cc(Nc2c(C#N)cncc2-c2ccc(OC)c(OC)c2)c(Cl)cc1Cl [Compound 138, 4-[(2,4-dichloro-5-ethoxyphenyl)amino]-5-(3,4-dimethoxyphenyl)nicotinonitrile]
–	8000 nM	–	CCCOc1cc(Nc2c(C#N)cncc2-c2ccc(OC)c(OC)c2)c(Cl)cc1Cl [Compound 139, 4-[(2,4-dichloro-5-propoxyphenyl)amino]-5-(3,4-dimethoxyphenyl)nicotinonitrile]
–	160 nM	100 nM	COc1ccc(-c2cncc(C#N)c2Nc2cc(OCCO)c(Cl)cc2Cl)cc1OC [Compound 141, 4-{[2,4-dichloro-5-(2-hydroxyethoxy)phenyl]amino}-5-(3,4-dimethoxyphenyl)nicotinonitrile]
–	520 nM	–	COCCOc1cc(-c2cncc(C#N)c2Nc2cc(OC)c(Cl)cc2Cl)ccc1OC [Compound 148, 4-[(2,4-dichloro-5-methoxyphenyl)amino]-5-[4-methoxy-3-(2-methoxyethoxy)phenyl]nicotinonitrile]
–	7090 nM	–	COCCOc1ccc(-c2cncc(C#N)c2Nc2cc(OC)c(Cl)cc2Cl)cc1OC [Compound 149, 4-[(2,4-dichloro-5-methoxyphenyl)amino]-5-[3-methoxy-4-(2-methoxyethoxy)phenyl]nicotinonitrile]
–	500 nM	–	COc1cc(Nc2c(C#N)cncc2-c2cccc(OCCCl)c2)c(Cl)cc1Cl [Compound 150, 5-[3-(2-chloroethoxy)phenyl]-4-[(2,4-dichloro-5-methoxyphenyl)amino]nicotinonitrile]
–	7100 nM	–	COc1cc(Nc2c(C#N)cncc2-c2cccc(OCCN3CCCC3)c2)c(Cl)cc1Cl [Compound 151, 4-[(2,4-dichloro-5-methoxyphenyl)amino]-5-[3-(2-pyrrolidin-1-ylethoxy)phenyl]nicotinonitrile]
